In brackets after ≈: the same amount, converted by molar mass. Where a SMILES comes first, the peptide text is derived from it. Primed or numbered codes have the meaning given here. Where no end group is shown, it is not given here. Linker = not defined here; FITC′ = not defined here
Legend:
E. coli = format: cell-based
Protocol: (§1) The antibacterial activity of various amino acid sequences was tested against S. aureus, P. aeruginosa and E. coli.

P. aeruginosa = format: cell-based
Protocol: as §1

S. aureus = format: cell-based
Protocol: as §1

[1] = Further release studies of linker-FITC peptides from surface under different temperatures and pH; format: physicochemical
Protocol: Further release studies were carried out to ascertain the strength of adherence of the peptides RKLPDA (SEQ ID NO: 12), RKLPDARKLPDA (SEQ ID NO: 13) and EEEEEEE (SEQ ID NO: 14) to the surface under different temperatures and pH. Each peptide comprised a linker-FITC sequence for fluorescence. Surfaces were coated with peptide as described for FIG. 1. The peptide-coated disks were incubated in PBS or in a balanced buffer at a set pH. Aliquots of the solution surrounding the surface were taken out at set time points and the fluorescence of the peptide in the solution monitored to establish the rate of peptide diffusion from the disk into the surrounding solution.

[2] = Binder-surface adherence of FITC-labelled binder peptide, fluorescence microscopy; format: physicochemical; conditions: hydroxyapatite disks and titanium squares, pH 7, room temperature, washed before imaging
From the text: This work established that the binder peptides interact with the surfaces

[3] = Release study of FITC peptide from hydroxyapatite disk into PBS (fluorescence); format: physicochemical
Protocol: A release study was carried out to ascertain the strength of adherence of the DDDDDDD (SEQ ID NO: 15)-Linker-FITC peptide to the hydroxyapatite surface. Disks of hydroxyapatite were incubated in 1 mg/ml peptide solutions for 1 hour and then washed thoroughly with PBS. The disk was then placed into a cuvette and surrounded with PBS solution (2 ml). The fluorescence of the solution around the disk was measured to ascertain the rate of peptide diffusion from the disk into the surrounding solution.

[4] = room temperature, balanced buffer pH 9 (FIG. 5)
[5] = room temperature, balanced pH 7 buffer (FIG. 4)

RRIYGRGYIRRRKLPDA [RRIYGRGYIRRRKLPDA]
Minimum inhibitory concentration (MIC) E. coli (E. coli): 5000 µg/mL
Minimum inhibitory concentration (MIC) P. aeruginosa (P. aeruginosa): 10000 µg/mL
Minimum inhibitory concentration (MIC) S. aureus (S. aureus): 10000 µg/mL

GTCIYQRLNAF [GTCIYQRLNAF]
Minimum inhibitory concentration (MIC) E. coli (E. coli): 10000 µg/mL
Minimum inhibitory concentration (MIC) P. aeruginosa (P. aeruginosa): 10000 µg/mL
Minimum inhibitory concentration (MIC) S. aureus (S. aureus): 10000 µg/mL

EEEEEEEE
Minimum inhibitory concentration (MIC) E. coli (E. coli): none
Minimum inhibitory concentration (MIC) P. aeruginosa (P. aeruginosa): none
Minimum inhibitory concentration (MIC) S. aureus (S. aureus): none

EEEEEEE (also: linker-FITC, site not given here)
release of peptide from surface ([1]; 4° C., pH 7 PBS (FIG. 3)): released
release of peptide from surface ([1]; 37° C., pH 7 PBS (FIG. 2)): released
release of peptide from surface [1, 4]: released
release of peptide from surface [1, 5]: released
release in comparison to RKLPDA and RKLPDARKLPDA ([1]; room temperature, pH 4 (FIG. 6)): Increased release

RRIYGRGYIRR [RRIYGRGYIRR]
Minimum inhibitory concentration (MIC) E. coli (E. coli): 1250 µg/mL
Minimum inhibitory concentration (MIC) P. aeruginosa (P. aeruginosa): 2500 µg/mL
Minimum inhibitory concentration (MIC) S. aureus (S. aureus): 2500 µg/mL

RKLPDARKLPDA (also: linker-FITC, site not given here)
release of peptide from surface [1, 4]: not released
release of peptide from surface [1, 5]: not released

PACIGERRY [PACIGERRY]
Minimum inhibitory concentration (MIC) E. coli (E. coli): 10000 µg/mL
Minimum inhibitory concentration (MIC) P. aeruginosa (P. aeruginosa): 10000 µg/mL
Minimum inhibitory concentration (MIC) S. aureus (S. aureus): 10000 µg/mL

RLYLRIGRR [RLYLRIGRR]
Minimum inhibitory concentration (MIC) E. coli (E. coli): 250 µg/mL
Minimum inhibitory concentration (MIC) P. aeruginosa (P. aeruginosa): 2000 µg/mL
Minimum inhibitory concentration (MIC) S. aureus (S. aureus): 500 µg/mL

DDDDDDD (DDDDDDD-{Linker-FITC′}; not fully specified; reading uncertain)
adherence of FITC-labelled binder peptide to surfaces [2]: adhered well to the surfaces
rate of release from hydroxyapatite into surrounding solution ([3]; disk incubated in 1 mg/ml peptide 1 hour, PBS 2 ml): fairly slow rate
time up to which increases in fluorescence (release) were observed ([3]; hydroxyapatite disk in PBS): up to 10 hours

N=C(N)NCCC[C@H](NC(=O)[C@H](CCCNC(=N)N)NC(=O)[C@H](CCCNC(=N)N)NC(=O)[C@H](CCCNC(=N)N)NC(=O)[C@H](CCCNC(=N)N)NC(=O)[C@@H](N)CCCNC(=N)N)C(=O)O [RRRRRR]
Minimum inhibitory concentration (MIC) E. coli (E. coli): 2500 µg/mL (≈ 2.62 mM)
Minimum inhibitory concentration (MIC) P. aeruginosa (P. aeruginosa): 39 µg/mL (≈ 0.0408 mM)
efficacy against P. aeruginosa (in words) (P. aeruginosa): surprisingly high efficacy
Minimum inhibitory concentration (MIC) S. aureus (S. aureus): 5000 µg/mL (≈ 5.23 mM)

CC(C)C[C@H](NC(=O)CNC(=O)[C@H](CS)NC(=O)[C@@H](NC(=O)CN)[C@@H](C)O)C(=O)N1CCC[C@H]1C(=O)NCC(=O)N[C@H](C(=O)N[C@@H](CCCCN)C(=O)N[C@@H](CS)C(=O)N[C@@H](CS)C(=O)O)[C@@H](C)O [GTCGLPGTKCC] (H-GTCGLPGTKCC-OH; N-terminus and C-terminus assumed)
Minimum inhibitory concentration (MIC) E. coli (E. coli): 10000 µg/mL (≈ 9.62 mM)
Minimum inhibitory concentration (MIC) P. aeruginosa (P. aeruginosa): 5000 µg/mL (≈ 4.81 mM)
Minimum inhibitory concentration (MIC) S. aureus (S. aureus): 5000 µg/mL (≈ 4.81 mM)

RKLPDA (also: linker-FITC, site not given here)
release of peptide from surface [1, 4]: not released
release of peptide from surface [1, 5]: not released
Minimum inhibitory concentration (MIC) E. coli (E. coli): none
Minimum inhibitory concentration (MIC) P. aeruginosa (P. aeruginosa): none
Minimum inhibitory concentration (MIC) S. aureus (S. aureus): none

RRIYGRGYIRREEEEEEEE [RRIYGRGYIRREEEEEEEE]
Minimum inhibitory concentration (MIC) E. coli (E. coli): 5000 µg/mL
Minimum inhibitory concentration (MIC) P. aeruginosa (P. aeruginosa): 10000 µg/mL
Minimum inhibitory concentration (MIC) S. aureus (S. aureus): 5000 µg/mL

Source: patent US10501495B2, “Antimicrobial surface” (The University of Birmingham, priority 2014, dated 2019)
